The subject of assay [1] is CCl4 -induced hepatopath rats. Kind of assay: Hepatopathy improving effects for CCl4-induced hepatopath rats (inhibition to the increase of transaminase in serum). The class given is in vivo. The note with it: SD male rats, 100 mg/kg oral, 30 min before CCl4 (diluted fourfold with olive oil, peritoneally, 4 mg/kg), blood after 24 hours; for Serum GPT: Control 1 (no CCl4) 20, Control 2 (CCl4 alone) 1071; for Serum GOT: Control 1 (no CCl4) 89, Control 2 (CCl4 alone) 7719. The procedure:
The hepatopathy improving effects of the compounds (I') of this invention for CCl4 -induced hepatopath rats were investigated by using, as an index, the inhibition to the increase of transaminase in serum. After SD male rats (7 weeks old; Japanese Charles River) had been fasted for 24 hours, test drugs were orally administered at 100 mg/kg. Thirty minutes later, a CCl4 solution (diluted fourfold with olive oil) was peritoneally administered at 4 mg/kg. The rats were fasted further for 24 hours and then anesthetized with 1 ml/kg of sodium pentobarbital. After a blood sample was collected from the descending abdominal aorta of each rat, the liver was enucleated and its wet weight was measured. Further, the GOT and GPT of a serum, which had been obtained from the blood sample so collected, were measured by an automatic chemical analyzer ("TBA-380", trade name; manufactured by Toshiba Corp.). Thick serums were measured after dilution in distilled water.
Note: Control 1 is a group not administered with CCl4 while Control
is a group administered with CCl4 alone.

A further assay has as its system hepatopath. Particulars: previously found by the present assignee; cited from earlier work.

These results are taken from patent US5227398A, “Benzodioxole derivatives and hepatopathy improvers comprising the same” (Tsumura & Co., priority 1990, dated 1993).

Where a name gives a salt, the structure may show the parent alone.

Consider `c1csc(=Nc2ccc3c(c2)OCO3)s1` [Example 1, N,N-(1,3-dithiol-2-ylidene)-1,3-benzodioxol-5-amine], for which, in assay [1], the “Serum GPT” value was determined as 74 U/1 and the “Serum GOT” value was 432 U/1.

For `CC(C)OC(=O)C(C(=O)c1ccc2c(c1)OCO2)=C1SC=CS1` [Example 2, isopropyl 2-(1,3-dithiol-2-ylidene)-3-[3,4-(methylenedioxy)phenyl]-3-oxopropionate], in assay [1], the “Serum GPT” value was 100 U/1 and the “Serum GOT” value was found to be 563 U/1.

On to `CC(C)OC(=O)C(=C1SC=CS1)c1ccc2c(c1)OCO2` [Example 3, isopropyl 2-(1,3-dithiol-2-ylidene)-2-[3,4-(methylenedioxy)phenyl]acetate], for which, in assay [1], the “Serum GPT” value worked out at 557 U/1 and the “Serum GOT” value is 2573 U/1.

Take `CSCC(N)C(=O)Nc1ccc2c(c1)OCO2` (stereo not shown) [Example 5, [(3,4-methylenedioxy)aniline]-S-methylcysteinamide hydrochloride]: in assay [1], the “Serum GPT” value is listed as 57 U/1 and the “Serum GOT” value is 391 U/1.

Turning to `CSC(=S)Nc1ccc2c(c1)OCO2` [Synthesis Example 1, methyl N-(3,4-methylenedioxyphenyl)dithiocarbamate], in assay [1], the “Serum GPT” value came to 230 U/1 and the “Serum GOT” value is 1027 U/1.

On to `COC(=O)CNc1ccc2c(c1)OCO2` [Synthesis Example 2, methyl 2-[N-(3,4-methylenedioxyphenyl)amino]acetate], for which, in assay [1], the “Serum GPT” value came out at 310 U/1 and the “Serum GOT” value amounted to 1400 U/1.

Turning to `COc1cc2c(c(OC)c1OC)-c1c(cc3c(c1OC)OCO3)CC(C)C(C)(O)C2` (stereo not shown) [gomisin A], the “improvement of GPT and GOT value of a hepatopath” value with hepatopath was “can promptly improve the GPT and GOT value of a hepatopath”.
